# Measurements published in patent US12404268B2, “2-heteroaryl aminoquinazolinone derivative” (Sumitomo Pharma Co., Ltd., priority 2020, dated 2025).
# System: neurons induced to differentiate from SCN1A gene deficient human iPS cells
# Experiment: Test for measuring hyperexcitation suppression activity (spontaneous calcium oscillation frequency)
# Assay type: cell-based
# Conditions: Homo sapiens, Neuron; @1 μM; read-out: inhibition rate
# Excerpt: Test for Measuring Hyperexcitation Suppression Activity Using Neurons Induced to Differentiate from SCN1A Gene Deficient Human iPS Cells
# (1) Induction of Differentiation from Human iPS cells to Neurons
# Half of the culture solution was exchanged once every 3 to 4 days.
# (2) Fluorescent Calcium Probe Treatment, Addition of Compound, and Evaluation of Intracellular Calcium Concentration
# Half of the culture solution was removed on day 60 from induction of differentiation or thereafter. A medium for measurement comprising a fluorescent calcium probe (Molecular Device, product name: FLIPR Calcium 6 Assay Bulk Kit, cat #R8191) was added at an amount equal to the remaining medium. The culture was left standing for 30 minutes and subjected to measurement.
# The test compounds were serially diluted with a dimethyl sulfoxide (DMSO) solution so that the final concentration would be 0.1 to 100 μM to prepare a concentrate with a concentration that is 6-fold of the final concentration.
# The intensity of fluorescence of a calcium probe was measured over time with FDSS7000EX (Hamamatsu Photonics) to evaluate the change in intracellular calcium concentrations. First, the intensity of fluorescence was measured for 2 minutes. The compound solutions were then added using FDSS7000EX for an additional 8 minute measurement of fluorescence intensity. The frequency of spontaneous calcium oscillation was quantified as an indicator of nerve excitation. With the frequency for 2 minutes before the addition of the compound solutions as 100%, the ratio of frequency for the last 2 minutes after addition of the compound solutions was calculated.
row,SMILES,inhibition at 1 µM [%]
1,"Cc1ccc(Nc2nc3ccc(F)cc3c(=O)n2-c2ccccc2)nc1 [Example 137, 6-fluoro-2-((5-methylpyridin-2-yl)amino)-3-phenylquinazolin-4(3H)-one]",85
2,Cc1cccc(Nc2nc3ccc(F)cc3c(=O)n2-c2ccccc2)n1 [Example 138],70
3,O=c1c2cc(F)ccc2nc(Nc2ccncc2F)n1-c1ccccc1 [Example 140],46
4,"O=c1c2cc(F)ccc2nc(Nc2ccnc(F)c2)n1-c1ccccc1 [Example 141, 6-fluoro-2-((2-fluoropyridin-4-yl)amino)-3-phenylquinazolin-4(3H)-one]",97
5,"COc1ccccc1-n1c(Nc2cccnc2)nc2ccc(F)cc2c1=O [Example 142, 6-fluoro-3-(2-methoxyphenyl)-2-(pyridin-3-ylamino)quinazolin-4(3H)-one]",86
6,COc1ccc(-n2c(Nc3cccnc3)nc3ccc(F)cc3c2=O)cc1 [Example 143],45
7,"O=c1c2cc(F)ccc2nc(Nc2cccnc2)n1-c1ccccc1Cl [Example 145, 3-(2-chlorophenyl)-6-fluoro-2-(pyridin-3-ylamino)quinazolin-4(3H)-one]",100
8,Cn1nccc1-n1c(Nc2cccnc2)nc2ccc(F)cc2c1=O [Example 150],26
9,O=c1c2cc(F)ccc2nc(Nc2cccnc2)n1C1(c2ccccc2)CC1 [Example 153],99
10,O=c1c2cc(F)ccc2nc(Nc2cccnc2)n1-c1ccsc1 [Example 161],35
11,C[C@@H](c1ccccc1)n1c(Nc2cccnc2)nc2ccc(F)cc2c1=O [Example 163],70
12,O=c1c2cc(F)ccc2nc(Nc2cccnc2)n1C1(c2ccccc2)COC1 [Example 168],58
13,Cc1nc(Nc2nc3ccc(F)cc3c(=O)n2-c2ccccc2)cs1 [Example 174],78
14,O=c1c2cc(F)ccc2nc(Nc2cccnc2)n1[C@H]1CC[C@H](O)CC1 [Example 180],35
15,CN(C)c1cccc(-n2c(Nc3cccnc3)nc3ccc(F)cc3c2=O)c1 [Example 181],73

# Same assay, conditions: Homo sapiens, Neuron; @10 μM; read-out: inhibition rate
row,SMILES,inhibition at 10 µM [%]
1,Cc1cc(Nc2nc3ccc(F)cc3c(=O)n2-c2ccccc2)ccn1 [Example 139],100
2,O=c1c2cc(Cl)ccc2nc(Nc2ccncn2)n1-c1ccccc1 [Example 146],11
3,COc1ccc(Nc2nc3ccc(F)cc3c(=O)n2-c2ccccc2)nc1 [Example 149],32
4,O=c1c2cc(F)ccc2nc(Nc2cccnc2)n1Cc1ccccc1 [Example 151],2
5,O=c1c2cccnc2nc(Nc2cccnc2)n1-c1ccccc1 [Example 152],15
6,Cc1nn(C)c(C)c1-n1c(Nc2cccnc2)nc2ccc(F)cc2c1=O [Example 154],98
7,O=c1c2cc(F)ccc2nc(Nc2cccnc2)n1CC1CCCCC1 [Example 155],81
8,CN1CCC(Cn2c(Nc3cccnc3)nc3ccc(F)cc3c2=O)CC1 [Example 156],95
9,O=c1c2cc(F)ccc2nc(Nc2cccnc2)n1Cc1ccccn1 [Example 157],90
10,O=c1c2cc(F)ccc2nc(Nc2cccnc2)n1CCc1ccccc1 [Example 158],100
11,O=c1c2cc(F)ccc2nc(Nc2cccnc2)n1CCN1CCCC1 [Example 159],56
12,O=c1c2cc(F)ccc2nc(Nc2cccnc2)n1-c1cncs1 [Example 160],58
13,O=c1c2cc(F)cnc2nc(Nc2cccnc2)n1-c1ccccc1 [Example 162],39
14,O=c1c2cc(F)ccc2nc(Nc2cccnc2)n1[C@H]1CCCOC1 [Example 164],92
15,O=c1c2cc(F)ccc2nc(Nc2cccnc2)n1C1CC1 [Example 165],100
16,C[C@@H]1CN(C)CC[C@H]1n1c(Nc2cccnc2)nc2ccc(F)cc2c1=O [Example 166],36
17,Cc1ccccc1C1(n2c(Nc3cccnc3)nc3ccc(F)cc3c2=O)CC1 [Example 167],100
18,O=c1c2cc(F)ccc2nc(Nc2ccsc2)n1-c1ccccc1 [Example 169],100
19,O=c1c2cc(F)ccc2nc(Nc2cccnc2)n1C1(c2ccccc2)CNC1 [Example 175],25
20,CN1CC(c2ccccc2)(n2c(Nc3cccnc3)nc3ccc(F)cc3c2=O)C1 [Example 176],88
21,O=c1c2cc(F)ccc2nc(Nc2cnsc2)n1-c1ccccc1 [Example 178],76
22,NCCn1c(Nc2cccnc2)nc2ccc(F)cc2c1=O [Example 179],98
23,Cn1ccc(Nc2nc3ccc(F)cc3c(=O)n2-c2ccccc2)c1 [Example 182],72
24,COc1cncc(-n2c(Nc3cccnc3)nc3ccc(F)cc3c2=O)c1 [Example 185],31
25,Cn1cc(Nc2nc3ccc(Cl)cc3c(=O)n2-c2ccccc2)cn1 [Example 186],100

# Same assay, conditions: Homo sapiens, Neuron; @100 μM; read-out: inhibition rate
row,SMILES,inhibition at 100 µM [%]
1,COc1cnccc1Nc1nc2ccc(F)cc2c(=O)n1-c1ccccc1 [Example 144],16
2,O=c1c2ccccc2nc(Nc2ccc3oncc3c2)n1-c1ccccc1 [Example 148],10
3,O=c1c2cc(F)ccc2nc(Nc2cccnc2)n1C1CCN(C2CC2)CC1 [Example 170],100
4,O=c1c2cc(F)ccc2nc(Nc2cccnc2)n1CCC(F)(F)F [Example 171],100
5,O=c1c2cc(F)ccc2nc(Nc2cnoc2)n1-c1ccccc1 [Example 172],100
6,O=c1c2cc(F)ccc2nc(Nc2cccnc2)n1CCO [Example 173],6
7,Nc1ccc2nc(Nc3cccnc3)n(-c3ccccc3)c(=O)c2c1 [Example 177],100
8,CO[C@H]1CN(C)CC[C@H]1n1c(Nc2cccnc2)nc2ccc(F)cc2c1=O [Example 183],13
9,O=c1c2cc(F)ccc2nc(Nc2cccnc2)n1-c1cncc(F)c1 [Example 184],54

# Same assay, conditions: Neuron; SCN1A gene deficient human iPS cell-derived neurons; FLIPR Calcium 6, FDSS7000EX; read-out: IC50 (50% inhibitory concentration, frequency of spontaneous calcium oscillation)
row,IC50 [µM],SMILES
1,2.7,Cc1ccncc1Nc1nc2ccc(Cl)cc2c(=O)n1-c1ccccc1 [Example 147]
2,> 10,COc1ccnc(Nc2nc3ccc(F)cc3c(=O)n2-c2ccccc2)c1 [Example 187]
3,> 10,COc1cccnc1Nc1nc2ccc(F)cc2c(=O)n1-c1ccccc1 [Example 188]
4,> 10,O=c1c2cnccc2nc(Nc2cccnc2)n1-c1ccccc1 [Example 189]
5,> 10,O=c1c2cc(F)ncc2nc(Nc2cccnc2)n1-c1ccccc1 [Example 190]
6,> 10,O=c1c2ncccc2nc(Nc2cccnc2)n1-c1ccccc1 [Example 191]
7,> 10,O=c1c2ccncc2nc(Nc2cccnc2)n1-c1ccccc1 [Example 192]
8,> 10,Cc1cc2nc(Nc3cccnc3)n(-c3ccccc3)c(=O)c2cn1 [Example 193]
9,> 10,Cc1cc2c(=O)n(-c3ccccc3)c(Nc3cccnc3)nc2cn1 [Example 194]
10,> 10,Cc1noc(C)c1-n1c(Nc2cccnc2)nc2ccc(F)cc2c1=O [Example 195]
11,> 10,CC1(n2c(Nc3cccnc3)nc3ccc(F)cc3c2=O)CC1 [Example 196]
12,> 10,O=c1c2cc(F)ncc2nc(Nc2cccnc2)n1CCc1ccccn1 [Example 197]
13,> 10,Cc1ccc2nc(Nc3cccnc3)n(-c3ccccc3)c(=O)c2n1 [Example 198]
14,> 10,O=c1c2cc(F)ccc2nc(Nc2cccnc2)n1[C@H]1CCOC1 [Example 199]
15,> 10,CO[C@H]1CC[C@H](n2c(Nc3cccnc3)nc3ccc(F)cc3c2=O)CC1 [Example 200]
16,> 10,C[C@H]1CC[C@H](n2c(Nc3cccnc3)nc3ccc(F)cc3c2=O)CC1 [Example 201]
17,> 10,Cc1cnc2nc(Nc3cccnc3)n(-c3ccccc3)c(=O)c2c1 [Example 202]
18,> 10,COCCn1c(Nc2cccnc2)nc2ccc(F)cc2c1=O [Example 203]
19,> 10,O=c1c2cc(F)ccc2nc(Nc2cccnc2)n1C1COC1 [Example 204]
20,> 10,O=c1c2cc(F)ccc2nc(Nc2cccnc2)n1C1(c2ccccc2)CCC1 [Example 205]
21,> 100,O=c1c2cc(F)ccc2nc(Nc2cccnc2)n1C1(c2ccccn2)CC1 [Example 206]
22,> 10,CN(C)CCn1c(Nc2cccnc2)nc2ccc(F)cc2c1=O [Example 207]
23,> 100,CN1C[C@H]2CC[C@@H](C1)[C@@H]2n1c(Nc2cccnc2)nc2ccc(F)cc2c1=O [Example 208]
24,> 100,O=c1c2cc(F)ccc2nc(Nc2csc(Cl)c2)n1-c1ccccc1 [Example 209]
25,> 100,CC(=O)Nc1ccc2nc(Nc3cccnc3)n(-c3ccccc3)c(=O)c2c1 [Example 210]
26,> 100,CS(=O)(=O)Nc1ccc2nc(Nc3cccnc3)n(-c3ccccc3)c(=O)c2c1 [Example 211]
27,> 10,CN(C)c1ccc2nc(Nc3cccnc3)n(-c3ccccc3)c(=O)c2c1 [Example 212]
28,> 100,CN(C)C(=O)c1ccc2nc(Nc3cccnc3)n(-c3ccccc3)c(=O)c2c1 [Example 213]
